Measured values published in patent publication US6136831A, “Pyrazole derivatives and COX inhibitors containing them” (Grelan Pharmaceutical Co., Ltd., priority 1997, dated 2000).

Legend:
[1] = system: rat adjuvant-induced arthritis; assay: Inhibitory Action on Adjuvant Arthritis (1) (Assay Example 2); type: in vivo, male Fisher rats; conditions: oral 5 mg/kg
Description: Dry Mycobacterium butyricum killed organisms (Difco) were suspended in liquid paraffin to make the concentration 1% and the resulting suspension used as an adjuvant. The adjuvant (50 μl) was subplantarly injected to the right hind paw of male Fisher rats (5 to 6 animals per group) to raise arthritis. Each test compound was suspended in a 0.5% aqueous sodium carboxymethylcellulose (CMC-Na) solution and orally administered to the rats at a dose of 5 mg/kg on days 0, 3, 7, 10, 14, 17 and 20 (7 times in total) after the arthritis induction. On the 21st disease day the rats were measured for their body weight and the edema of their right and left hind paws. Simultaneously, systemic inflammatory states were scored. In addition, each of their spleen and thymus was taken out by excision to measure their wet weight and their relative weight per 100 g body weight was calculated.

COX-2 [2] = biological target: T1, COX-2 (Ovis aries, UniProt P79208); assay: Inhibitory Activity on COX-2 (Assay Example 1); type: biochemical; conditions: Table 1; for IC50: read-out: COX Inhibiting Activity IC50, COX-2
T1 construct: purchased Cayman Chemical Co
T1 sequence (P79208 17-603): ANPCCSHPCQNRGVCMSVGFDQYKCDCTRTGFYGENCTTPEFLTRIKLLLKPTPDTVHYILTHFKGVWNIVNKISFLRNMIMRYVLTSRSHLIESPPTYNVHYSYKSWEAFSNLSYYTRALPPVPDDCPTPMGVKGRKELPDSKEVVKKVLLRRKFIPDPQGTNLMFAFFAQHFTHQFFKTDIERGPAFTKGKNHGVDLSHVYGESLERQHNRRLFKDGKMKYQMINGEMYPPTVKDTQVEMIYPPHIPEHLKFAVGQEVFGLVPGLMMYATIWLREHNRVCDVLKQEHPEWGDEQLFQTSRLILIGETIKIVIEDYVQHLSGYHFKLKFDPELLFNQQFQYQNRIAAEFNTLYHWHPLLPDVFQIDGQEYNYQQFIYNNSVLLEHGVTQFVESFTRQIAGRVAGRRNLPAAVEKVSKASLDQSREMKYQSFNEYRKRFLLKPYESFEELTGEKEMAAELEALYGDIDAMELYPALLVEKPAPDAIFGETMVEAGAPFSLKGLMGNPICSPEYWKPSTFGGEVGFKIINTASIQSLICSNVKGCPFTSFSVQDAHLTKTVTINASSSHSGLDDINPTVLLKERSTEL

COX-1 [3] = biological target: T2, COX-1 (Ovis aries, UniProt P05979); assay: Inhibitory Activity on COX-1 (Assay Example 1); type: biochemical; conditions: Table 1; read-out: COX Inhibiting Activity IC50, COX-1
T2 construct: purchased Cayman Chemical Co
T2 sequence (P05979 25-600): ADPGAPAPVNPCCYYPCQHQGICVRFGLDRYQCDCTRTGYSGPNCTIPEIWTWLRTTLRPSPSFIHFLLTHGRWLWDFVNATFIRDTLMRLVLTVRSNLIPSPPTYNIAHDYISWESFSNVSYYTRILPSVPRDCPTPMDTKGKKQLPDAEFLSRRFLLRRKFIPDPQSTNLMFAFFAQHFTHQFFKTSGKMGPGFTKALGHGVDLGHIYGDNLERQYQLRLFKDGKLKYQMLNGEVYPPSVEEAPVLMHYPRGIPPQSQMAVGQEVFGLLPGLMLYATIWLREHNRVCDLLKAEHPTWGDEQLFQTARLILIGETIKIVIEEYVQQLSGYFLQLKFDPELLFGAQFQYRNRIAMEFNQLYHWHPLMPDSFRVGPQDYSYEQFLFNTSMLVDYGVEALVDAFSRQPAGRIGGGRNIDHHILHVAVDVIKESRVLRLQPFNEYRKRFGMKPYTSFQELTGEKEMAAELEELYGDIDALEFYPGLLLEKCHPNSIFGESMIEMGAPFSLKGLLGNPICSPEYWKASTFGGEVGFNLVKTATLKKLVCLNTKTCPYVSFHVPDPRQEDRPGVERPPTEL

COX-1 [4] = biological target: T2, COX-1; assay: Inhibitory Activity on COX-1 (Assay Example 5); type: biochemical; conditions: Table 4; read-out: COX Inhibiting Activity IC50, COX-1
COX-2 [5] = biological target: T1, COX-2; assay: Inhibitory Activity on COX-2 (Assay Example 5); type: biochemical; conditions: Table 4; for IC50: read-out: COX Inhibiting Activity IC50, COX-2
[6] = system: adjuvant arthritis in rats; assay: Inhibitory Action on Adjuvant Arthritis (2) (Assay Example 6); type: in vivo, male F344/Du (Fisher) rats; conditions: oral 1 mg/5 ml/kg daily, 17 days; for % Inhibition against Reduction of Gain in Body Weight / Edema Inhibition (%) Left Hind Paw (Non-inflamed Paw) / Edema Inhibition (%) Right Hind Paw (Inflamed Paw): measured next day; for % Inhibition against Change in Relative Weight, Spleen / % Inhibition against Change in Relative Weight, Thymus: relative weight per 100 g body weight; for Inflammation Score Inhibition (%): scored next day
Description: A 1% dry Mycobacterium tuberculosis H37 RA killed organism suspension in liquid paraffin was employed as an adjuvant. The adjuvant suspension (50 μl) was subplantarly administered to the right hind paw of male F344/Du (Fisher) rats (5 to 6 animals per group) to raise arthritis. […] The next day after the final administration, the rats were measured for their body weight and the edema of their right and left hind paws. Simultaneously, systemic inflammatory states were scored. In addition, each of their spleen and thymus was taken out by excision to measure their wet weight and their relative weight per 100 g body weight was determined.

[7] = 7 times, relative weight per 100 g body weight, day 21
[8] = days 0, 3, 7, 10, 14, 17, 20, measured day 21

| SMILES | IC50 (COX-1 [4]) [µM] | COX-1/COX-2 (ratio of IC50 values) (COX-2 [5]) | IC50 (COX-2 [5]) [µM] | further results |
| --- | --- | --- | --- | --- |
| CS(=O)(=O)c1ccc(-n2nc(C(F)(F)F)cc2-c2nc3cc(F)ccc3s2)cc1 [Example 4, 5-Fluoro-2-[1-(4-methylsulfonylphenyl)-3-trifluoromethyl-1H-pyrazol-5-yl]benzothiazole] |  |  |  | % Inhibition against Change in Relative Weight, Spleen [1, 7]: 2.9%; % Inhibition against Change in Relative Weight, Thymus [1, 7]: 148.9%; % Inhibition against Reduction of Gain in Body Weight [1, 8]: 78.7%; Edema Inhibition (%) Left Hind Paw (Non-inflamed Paw) [1, 8]: 91%; Edema Inhibition (%) Right Hind Paw (Inflamed Paw) [1, 8]: 83%; Inflammation Score Inhibition (%) ([1]; days 0, 3, 7, 10, 14, 17, 20, scored day 21): 100% |
| CS(=O)(=O)c1ccc(-n2nc(C(F)(F)F)cc2-c2nc3ccccc3s2)cc1 [Example 8, 2-[1-(4-Methylsulfonylphenyl)-3-trifluoromethyl-1H-pyrazol-5-yl]benzothiazole] |  |  |  | COX-1/COX-2 (ratio of IC50 values) (COX-2 [2]): > 294; IC50 (COX-2 [2]): 0.34 µM; IC50 (COX-1 [3]): > 100 µM |
| CS(=O)(=O)c1ccc(-n2nc(C(F)(F)F)cc2-c2nc3ccc(Cl)cc3s2)cc1 [Example 10, 6-Chloro-2-[1-(4-methylsulfonylphenyl)-3-trifluoromethyl-1H-pyrazol-5-yl]benzothiazole] |  |  |  | COX-1/COX-2 (ratio of IC50 values) (COX-2 [2]): > 185; IC50 (COX-2 [2]): 0.54 µM; IC50 (COX-1 [3]): > 100 µM |
| COc1ccc2nc(-c3cc(C(F)(F)F)nn3-c3ccc(S(N)(=O)=O)cc3)sc2c1 [Example 11, 4-[5-(6-Methoxybenzothiazol-2-yl)-3-trifluoromethyl-1H-pyrazol-1-yl]benzenesulfonamide] |  |  |  | COX-1/COX-2 (ratio of IC50 values) (COX-2 [2]): > 208; IC50 (COX-2 [2]): 0.48 µM; IC50 (COX-1 [3]): > 100 µM |
| NS(=O)(=O)c1ccc(-n2nc(C(F)(F)F)cc2-c2nc3ccccc3s2)cc1 [Example 14, 4-[5-(Benzothiazol-2-yl)-3-trifluoromethyl-1H-pyrazol-1-yl]-benzenesulfonamide] | > 100 | > 1786 | 0.056 |  |
| Cc1ccc2nc(-c3cc(C(F)(F)F)nn3-c3ccc(S(N)(=O)=O)cc3)sc2c1 [Example 16, 4-[5-(6-Methylbenzothiazol-2-yl)-3-trifluoromethyl-1H-pyrazol-5-yl]benzenesulfonamide] | > 100 | > 172 | 0.58 |  |
| CS(=O)(=O)c1ccc(-n2nc(C(F)(F)F)cc2-c2nc3cccc(F)c3s2)cc1 [Example 17, 7-fluoro-2-[1-(4-methylsulfonylphenyl)-3-trifluoromethyl-1H-pyrazol-5-yl]benzothiazole] | > 100 | > 625 | 0.16 |  |
| NS(=O)(=O)c1ccc(-n2nc(C(F)(F)F)cc2-c2nc3cccc(F)c3s2)cc1 [Example 18, 4-[5-(7-Fluorobenzothiazol-2-yl)-3-trifluoromethyl-1H-pyrazol-1-yl]benzenesulfonamide] | > 100 | > 625 | 0.16 | % Inhibition against Reduction of Gain in Body Weight [6]: 75%; Edema Inhibition (%) Left Hind Paw (Non-inflamed Paw) [6]: 116%; Edema Inhibition (%) Right Hind Paw (Inflamed Paw) [6]: 84%; % Inhibition against Change in Relative Weight, Spleen [6]: 48%; % Inhibition against Change in Relative Weight, Thymus [6]: 48%; Inflammation Score Inhibition (%) [6]: 91% |
| NS(=O)(=O)c1ccc(-n2nc(C(F)F)cc2-c2nc3ccccc3s2)cc1 [Example 21, 4-[5-(Benzothiazol-2-yl)-3-difluoromethyl-1H-pyrazol-1-yl]-benzenesulfonamide] | 22 | 386 | 0.057 |  |
| CS(=O)(=O)c1ccc(-n2nc(C(F)F)cc2-c2nc3ccc(F)cc3s2)cc1 [Example 22, 6-Fluoro-2-[1-(4-methylsulfonylphenyl)-3-difluoromethyl-1H-pyrazol-5-yl]benzothiazole] | > 100 | > 2000 | 0.05 |  |
| NS(=O)(=O)c1ccc(-n2nc(C(F)F)cc2-c2nc3ccc(F)cc3s2)cc1 [Example 23, 4-[5-(6-Fluorobenzothiazol-2-yl)-3-difluoromethyl-1H-pyrazol-1-yl]benzenesulfonamide] | > 100 | > 909 | 0.11 |  |
| NS(=O)(=O)c1ccc(-n2nc(C(F)F)cc2-c2nc3ccc(Cl)cc3s2)cc1 [Example 24, 4-[5-(6-Chlorobenzothiazol-2-yl)-3-difluoromethyl-1H-pyrazol-1-yl]benzenesulfonamide] | 1.8 | 21 | 0.086 |  |
| COc1ccc2nc(-c3cc(C(F)F)nn3-c3ccc(S(N)(=O)=O)cc3)sc2c1 [Example 25, 4-[3-Difluoromethyl-5-(6-methoxybenzothiazol-2-yl)-1H-pyrazol-5-yl]benzenesulfonamide] | > 100 | > 250 | 0.4 |  |
| Cc1ccc2nc(-c3cc(C(F)F)nn3-c3ccc(S(C)(=O)=O)cc3)sc2c1 [Example 26, 6-Methyl-2-[1-(4-methylsulfonylphenyl)-3-difluoromethyl-1H-pyrazol-5-yl]benzothiazole] | > 100 | > 769 | 0.13 |  |
| Cc1ccc2nc(-c3cc(C(F)F)nn3-c3ccc(S(N)(=O)=O)cc3)sc2c1 [Example 27] | 33 | 623 | 0.053 |  |
| CS(=O)(=O)c1ccc(-n2nc(C(F)F)cc2-c2nc3cccc(F)c3s2)cc1 [Example 28, 7-Fluoro-2-[1-(4-methylsulfonylphenyl)-3-difluoromethyl-1H-pyrazol-5-yl]benzothiazole] | > 100 | > 1190 | 0.084 |  |
| NS(=O)(=O)c1ccc(-n2nc(C(F)F)cc2-c2nc3cccc(F)c3s2)cc1 [Example 29, 4-[5-(7-Fluorobenzothiazol-2-yl)-3-difluoromethyl-1H-pyrazol-1-yl]benzenesulfonamide] | > 100 | > 8333 | 0.012 | % Inhibition against Reduction of Gain in Body Weight [6]: 73%; Edema Inhibition (%) Left Hind Paw (Non-inflamed Paw) [6]: 124%; Edema Inhibition (%) Right Hind Paw (Inflamed Paw) [6]: 82%; % Inhibition against Change in Relative Weight, Spleen [6]: 25%; % Inhibition against Change in Relative Weight, Thymus [6]: 80%; Inflammation Score Inhibition (%) [6]: 86% |
| Cc1cccc2nc(-c3cc(C(F)F)nn3-c3ccc(S(N)(=O)=O)cc3)sc12 [Example 31, 4-[3-Difluoromethyl-5-(7-methylbenzothiazol-2-yl)-1H-pyrazol-1-yl]benzenesulfonamide] | > 100 | > 417 | 0.24 |  |
| Cc1ccc2nc(-c3cc(C(F)(F)C(F)(F)F)nn3-c3ccc(S(C)(=O)=O)cc3)sc2c1 [Example 32, 6-Methyl-2-[1-(4-methylsulfonylphenyl)-3-pentafluoroethyl-1H-pyrazol-5-yl]benzothiazole] | > 100 | > 270 | 0.37 |  |
| Cc1ccc2nc(-c3cc(C(F)(F)C(F)(F)F)nn3-c3ccc(S(N)(=O)=O)cc3)sc2c1 [Example 33, 4-[5-(6-Methylbenzothiazol-2-yl)-3-pentafluoroethyl-1H-pyrazol-5-yl]benzenesulfonamide] | > 100 | > 769 | 0.13 |  |
| NS(=O)(=O)c1ccc(-n2nc(C(F)F)cc2-c2nc3c(F)cccc3s2)cc1 [Example 41] | > 100 | > 417 | 0.24 |  |
